Results reported in ChEMBL document CHEMBL4130372, “The antitrypanosomal and antitubercular activity of some nitro(triazole/imidazole)-based aromatic amines” (Eur J Med Chem, 2017).
In brackets after ≈: the same amount, converted by molar mass. Activity calls are given as the source filed them. The rule behind the calls is not given here.

Tests used:
[1] = system: Trypanosoma brucei rhodesiense; assay: Antitrypanosomal activity against blood stream form of Trypanosoma brucei rhodesiense STIB900 trypomastigotes after 72 hrs by Alamar Blue assay; format: functional, organism-based; settings: STIB900, 72 h
[2] = Selectivity index, ratio of IC50 for rat L6 cells to IC50 for blood stream form of Trypanosoma brucei rhodesiense STIB900; format: toxicity; settings: read-out: Ratio IC50
[3] = Selectivity index, ratio of IC50 for rat L6 cells to IC50 for […] amastigotes infected in rat L6 cells; format: toxicity, cell-based; settings: read-out: Ratio IC50
Trypanosoma cruzi [4] = assay: Potency index, ratio of benznidazole IC50 to compound IC50 for Trypanosoma cruzi Tulahuen C4; format: functional
Trypanosoma cruzi [5] = assay: Antitrypanosomal activity against Trypanosoma cruzi Tulahuen C4 amastigotes infected in rat L6 cells after 96 hrs by CPRG/nonidet-based inverted microscopic analysis; format: functional, organism-based; settings: Tulahuen C4, L6, 96 h
L6 = assay: Cytotoxicity against rat L6 cells assessed as reduction in cell viability after 2 days by cell-titer-glo luminescent assay; format: cell-based; settings: L6, 48 h
[6] = system: Mycobacterium tuberculosis; assay: Antitubercular activity against Mycobacterium tuberculosis H37Rv ATCC 27294 after 5 days measured under aerobic conditions by fluorescence-based assay; format: functional, organism-based; settings: H37Rv ATCC 27294, 120 h
[7] = system: Mycobacterium tuberculosis; assay: Antitubercular activity against Mycobacterium tuberculosis H37Rv ATCC 27294 expressing luxABCDE operon incubated for 10 days under hypoxic conditions followed by incubation under aerobic conditions for 28 hrs by LORA method; format: functional, organism-based
[8] = system: Mycobacterium tuberculosis; assay: Antitubercular activity against Mycobacterium tuberculosis H37Rv ATCC 27294 expressing luxABCDE operon at 100 uM incubated for 10 days under hypoxic conditions followed by incubation under aerobic conditions for 28 hrs by LORA method; format: functional
[9] = system: Mycobacterium tuberculosis; assay: Antitubercular activity against Mycobacterium tuberculosis H37Rv ATCC 27294 expressing […] infected in mouse J774 cells assessed as log reduction in intracellular bacterial burden at 200 uM after 4 days by luminescence assay; format: functional
[10] = Cytotoxicity against African green monkey Vero cells assessed as reduction in cell viability after 2 days by cell-titer-glo luminescent assay; format: cell-based; settings: chlorocebus sabaeus, read-out: TC50
[11] = system: Mycobacterium tuberculosis; assay: Bactericidal activity against Mycobacterium tuberculosis H37Rv ATCC 27294 assessed as minimum concentration required to achieve a 2-log kill measured after 21 days; format: functional
[12] = system: Mycobacterium tuberculosis; assay: Antitubercular activity against Mycobacterium tuberculosis INH-R2 ATCC 35822 after 5 days by fluorescence-based assay; format: functional; settings: INH-R2 ATCC 35822, 120 h
[13] = system: Mycobacterium tuberculosis; assay: Antitubercular activity against Mycobacterium tuberculosis RIF-R2 ATCC 35828 after 5 days by fluorescence-based assay; format: functional; settings: RIF-R2 ATCC 35828, 120 h
[14] = system: Mycobacterium tuberculosis; assay: Bactericidal activity against Mycobacterium tuberculosis H37Rv ATCC 27294 assessed as minimum concentration required to achieve a 2-log kill measured after 21 days under hypoxic conditions; format: functional; settings: H37Rv ATCC 27294, 504 h
[15] = system: Mycobacterium tuberculosis; assay: Antitubercular activity against Mycobacterium tuberculosis H37Rv ATCC 27294 expressing […] infected in mouse J774 cells assessed as log reduction in intracellular bacterial burden at 30 uM after 4 days by luminescence assay; format: functional
[16] = system: Mycobacterium tuberculosis; assay: Antitubercular activity against Mycobacterium tuberculosis H37Rv ATCC 27294 expressing […] infected in mouse J774 cells assessed as log reduction in intracellular bacterial burden at 0.6 uM after 4 days by luminescence assay; format: functional
[17] = system: Mycobacterium tuberculosis; assay: Antitubercular activity against Mycobacterium tuberculosis H37Rv ATCC 27294 expressing […] infected in mouse J774 cells assessed as log reduction in intracellular bacterial burden at 20 uM after 4 days by luminescence assay; format: functional
[18] = Selectivity index, ratio of TC50 for African green monkey Vero cells to MIC for Mycobacterium tuberculosis H37Rv ATCC 27294 expressing luxABCDE operon; format: toxicity; settings: read-out: Selectivity Index

Structure (SMILES) | IC50 [1] [µM] | selectivity ratio [2] | selectivity ratio [3] | Ratio IC50 (Trypanosoma cruzi [4]) | IC50 (Trypanosoma cruzi [5]) [µM] | IC50 (L6) [µM] | IC50 [6] [µM] | IC90 [6] [µM] | MIC [6] [µM] | MIC [7] [µM] | other results
Cl.O=[N+]([O-])c1ncn(CCCCNc2ccnc3cc(Cl)ccc23)n1 | 0.193 | 710 | 979 | 9.6 |  |  |  |  |  |  | 
O=[N+]([O-])c1ncn(CCCCNc2ncnc3ccccc23)n1 | 0.39 | 88 | 39 | 2.57 | 0.872 | 34.4 | 51 | 140 | 200 (≈ 62.7 µg/mL) | > 100 | IC50 [7]: 11 µM; IC90 [7]: > 100 µM; Activity [8]: 76%; log(activity) [9]: 0.7; CC50 at 48 h [10]: > 100 µM; MBC ([11]; H37Rv ATCC 27294, 504 h): 100 µM (≈ 31.3 µg/mL); MIC [12]: > 200 µM; MIC [13]: > 200 µM
Clc1cccc2c(NCCCCn3cncn3)ccnc12 | 13.5 | 2.8 | 0.8 | 0.05 | 48.6 | 37.7 |  |  |  |  | 
O=[N+]([O-])c1ncn(CCCCNc2ccnc3c(Cl)cccc23)n1 | 0.038 | 1940 | 128 | 3.9 | 0.574 | 73.6 | > 200 | > 200 | > 200 | > 100 | Activity [8]: 82%
Cl.O=[N+]([O-])c1ncn(CCCNc2ccnc3cc(Cl)ccc23)n1 | 0.309 |  |  | 2.2 |  |  |  |  |  |  | 
O=[N+]([O-])c1nccn1CCCNc1ncnc2ccccc12 | 13.2 | 2.9 | 21 | 1.11 | 1.83 | 38.6 |  |  |  |  | 
O=[N+]([O-])c1cn2c(n1)OC[C@@H](OCc1ccc(OC(F)(F)F)cc1)C2 [PRETOMANID] |  |  |  |  |  |  |  |  |  |  | MBC [14]: 17.8 to 35.7 µM (≈ 6.39 to 12.8 µg/mL)
Cc1ncc([N+](=O)[O-])n1CCO [METRONIDAZOLE] |  |  |  |  |  |  | > 200 | > 200 | > 200 | 200 (≈ 34.2 µg/mL) | IC50 [7]: 36 µM; IC90 [7]: 82 µM
CO[C@H]1/C=C/O[C@@]2(C)Oc3c(C)c(O)c4c(O)c(c(/C=N/N5CCN(C)CC5)c(O)c4c3C2=O)NC(=O)/C(C)=C\C=C\[C@H](C)[C@H](O)[C@@H](C)[C@@H](O)[C@@H](C)[C@H](OC(C)=O)[C@@H]1C [RIFAMPIN] |  |  |  |  |  |  | 0.0046 | 0.0049 | 0.015 (≈ 0.0123 µg/mL) | 0.022 (≈ 0.0181 µg/mL) | IC50 [7]: 0.00072 µM; IC90 [7]: 0.0037 µM; MIC [12]: 0.011 µM (≈ 0.00905 µg/mL); MIC [13]: > 50 µM
NNC(=O)c1ccncc1 [ISONIAZID] |  |  |  |  |  |  |  |  |  |  | log(activity) [15]: 2.6; log(activity) [16]: 2.7; MIC [12]: > 200 µM; MIC [13]: 0.67 µM (≈ 0.0919 µg/mL)
Cl.O=[N+]([O-])c1nccn1CCCCNc1ccnc2cc(Cl)ccc12 | 1.87 | 36 | 19 | 0.64 |  |  |  |  | > 128 |  | MBC [14]: 12.8 to 25.7 µM; CC50 at 48 h [10]: > 1680 µM
O=[N+]([O-])c1nccn1CCCCNc1ccnc2c(Cl)cccc12 | 1.27 | 29 | 18 | 1.1 | 2.04 | 36.2 | 41 | > 200 | > 200 | 4.14 (≈ 1.43 µg/mL) | IC50 [7]: 0.15 µM; IC90 [7]: 0.84 µM; log(activity) [17]: 1.5; CC50 at 48 h [10]: 66 µM; MBC [11]: inactive; MIC [12]: > 200 µM; MIC [13]: > 200 µM; selectivity ratio [18]: 16
O=C(Cn1ccnc1[N+](=O)[O-])NCc1ccccc1 [BENZNIDAZOLE] |  |  |  |  | 2.24 |  |  |  |  |  | 
O=[N+]([O-])c1nccn1CCCCNc1ncnc2ccccc12 | 2.58 | 3.5 | 3.9 | 0.96 | 2.32 | 8.96 | > 200 | > 200 | > 200 | 9.18 (≈ 2.87 µg/mL) | 
O=[N+]([O-])c1nccn1CCCNc1ccnc2c(Cl)cccc12 | 1.29 | 83 | 97 | 2.02 | 1.11 | 107 | > 200 | > 200 | > 200 | 2.89 (≈ 0.959 µg/mL) | 
Cl.O=[N+]([O-])c1nccn1CCCNc1ccnc2cc(Cl)ccc12 | 1.4 | 18 | 24 | 2.15 |  |  |  |  | > 128 |  | MBC [14]: 8.4 to 50 µM; CC50 at 48 h [10]: 399 µM
C[C@H]1COc2c(N3CCN(C)CC3)c(F)cc3c(=O)c(C(=O)O)cn1c23.C[C@H]1COc2c(N3CCN(C)CC3)c(F)cc3c(=O)c(C(=O)O)cn1c23.O [LEVOFLOXACIN] |  |  |  |  |  |  |  |  |  |  | MIC [12]: 1.3 µM; MIC [13]: 1.4 µM
